In patent publication US7321027B2, “Small technetium-99m and rhenium labeled agents and methods for imaging tumors” (President and Fellows of Harvard College, priority 2000, dated 2008):

Assays:
melanoma = settings: 1 hour post injection; cited from earlier work
σ2-receptors = target: T1, σ2-receptors (Rattus norvegicus, UniProt Q5U3Y7); experiment: σ2-Receptor binding assay; settings: σ2 vs σ1
T1 construct: Rat liver membranes were prepared from male Sprague-Dawley rat livers as previously described; from tissue; host or cells: male Sprague-Dawley rat liver membranes
T1 sequence (Q5U3Y7 1-176): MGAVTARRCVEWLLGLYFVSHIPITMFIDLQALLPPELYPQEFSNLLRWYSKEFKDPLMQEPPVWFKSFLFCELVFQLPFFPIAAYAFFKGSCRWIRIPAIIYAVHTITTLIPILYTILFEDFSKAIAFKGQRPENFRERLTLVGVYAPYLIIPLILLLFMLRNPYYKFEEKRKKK
Procedure: Receptor Binding Studies. To understand the involvement of receptor binding in the melanoma-cell uptake of these ^99mTc-complexes, we further investigated the affinity of these complexes in an established σ-receptor assay.
σ2-Receptor Binding Assay. Rat liver membranes were prepared from male Sprague-Dawley rat livers as previously described (Hellewell, S. B.; Bruce A.; Feinstein, G.; Orringer, J.; Williams, W.; Bowen, W. D. Rat Liver and Kidney Contain High Densities of σ1 and σ2 Receptors: Characterization by Ligand Binding and Photoaffinity Labeling. Eur. J. Pharmacol.-Mol. Pharmacol. Sect. 1994, 268, 9-18). […] Competition assays were performed with fifteen concentrations of the nonradioactive rhenium complexes ranging from 10^−10 to 10^−3 M and protein samples (0.15 mg membrane protein) in Tris-HCl (50 mM), pH 8.0, for 120 min at 25° C. in a 0.25-mL volume. All other manipulations and data analysis were performed as described vide supra for the σ1 receptor assay.

[1] = Determination of lipophilicity and pKa values by HPLC; format: physicochemical; settings: HPLC method
Procedure: The physicochemical parameters of the rhenium complexes, i.e. lipophilicity log P, log D(pH 7.4), and pKa (Table 2) were determined using HPLC methods (Braumann, T.; Grimme, L. H. Determination of Hydrophobic Parameters for Pyridazinone Herbicides by Liquid-Liquid Partition and Reversed-Phase High-Performance Liquid Chromatography. J. Chromatogr. 1981, 206, 7-15; Stytli, C.; Theobald, A. E. Determination of Ionization Constants of Radiopharmaceuticals in Mixed Solvents by HPLC. Appl. Radiat. Isot., 1987, 38, 701-708; Johannsen, B.; Scheunemann, M.; Spies, H.; Brust, P.; Wober, J.; Syhre, R.; Pietzsch, H.-J. Technetium(V) and Rhenium(V) Complexes for 5-HT2A Serotonin Receptor Binding: Structure-Affinity Considerations. Nucl. Med. Biol., 1996, 23, 429-438; and Johannsen, B.; Berger, R.; Brust, P.; Pietzsch, H.-J; Scheunemann, M.; Seifert, S.; Spies, H.; Syhre, R. Structural Modification of Receptor-Binding Technetium-99m Complexes in Order to Improve Brain Uptake. Eur. J. Nucl. Med. 1997, 24, 316-319). […] Since log D(pH 7.4) is a composite measure of log P and pKa, the log D(PH 7.4) of Re-Compound B (1.9) is also higher than that of Re-Compound A (1.1). […] With pKa values >9 for complexes Re-Compound C and Re-Compound D, the resulting low log D(PH 7.4) values of −0.5 (Re-Compound C) and 0.7 (Re-Compound D) are not surprising, since the complexes would exist in a protonated form at pH 7.4.
Determination of Lipophilicity and pKa Values. The lipophilicity and pKa values of all complexes were determined using HPLC methods described previously (Stylli, C.; Theobald, A. E. Determination of Ionization Constants of 4 Radiopharmaceuticals in Mixed Solvents by HPLC. Appl. Radiat. Isot., 1987, 38, 701-708; Johannsen, B.; Scheunemann, M.; Spies, H.; Brust, P.; Wober, J.; Syhre, R.; Pietzsch, H.-J. Technetium(V) and Rhenium(V) Complexes for 5-HT2A Serotonin Receptor Binding: Structure-Affinity Considerations. Nucl. Med. Biol., 1996, 23, 429-438; and Johannsen, B.; Berger, R.; Brust, P.; Pietzsch, H.-J.; Scheunemann, M.; Seifert, S.; Spies, H.; Syhre, R. Structural Modification of Receptor-Binding Technetium-99m Complexes in Order to Improve Brain Uptake. Eur. J. Nucl. Med. 1997, 24, 316-319). […] The mobile phase was acetonitrile:phosphate buffer (0.01 M), 3:1, v/v, with the aqueous buffer adjusted to the desired pH between 3 and 11. The capacity factor (k′) was calculated for each determination (Braumann, T.; Grimme, L. H. Determination of Hydrophobic Parameters for Pyridazinone Herbicides by Liquid-Liquid Partition and Reversed-Phase High-Performance Liquid Chromatography. J. Chromatogr. 1981, 206, 7-15; El Tayer, N.; van der Waterbeemd, H.; Testa, B. Lipophilicity Measurements of Protonated Basic Compounds by Reversed-Phase High-Performance Liquid Chromatography. II. Procedure for the Determination of a Lipophilic Index Measured by Reversed-Phase High Performance Liquid Chromatography. J. Chromatogr. 1985, 320, 305-312; and Minick, D. J.; Frenz, J. H.; Patrick, M. A.; Brent, D. A. A Comprehensive Method for Determining Hydrophobicity Constants by Reversed-Phase High-Performance Liquid Chromatography. J. Med. Chem., 1988, 31, 1923-1933) and the partition coefficient at a given pH (D or log D) were calculated from the equation: log D=a log k′+b where the parameters a and b are predetermined using standard amines. The fitted points of inflection from the sigmoidal DHPLC/pH profiles permit calculation of the pKHPLC(Stylli, C.; Theobald, A. E. Determination of Ionization Constants of Radiopharmaceuticals in Mixed Solvents by HPLC. Appl. Radiat. Isot., 1987, 38, 701-708). The aqueous ionization constants pKa were calculated from the pKHPLC values after correction with a predetermined correction factor obtained using standard amine compounds. Log P values of the neutral complexes were estimated from the respective upper plateau of the sigmoidal log D/pH curve in the alkaline range.

Compound	melanoma uptake (melanoma)	greater affinity toward the σ2-receptor subtype (σ2-receptors)	pKa [1]	log D(pH 7.4) ([1]; pH 7.4)
CCN(CC)CCNC(=O)c1ccc(CC2[N]3CC(C)(C)[S][Tc]34(#[N])[S]C(C)(C)C[N]4C2(C)C)cc1 (centres unmarked) [Compound 1]	Compound 10.4% uptake % ID/g			
CCN(CC)CCNC(=O)c1ccc(CCNC2=[SH][Tc]3(#[N])([S]2)[S]C(NCCc2ccc(C(=O)NCCN(CC)CC)cc2)=[SH]3)cc1 [Compound 4]	Compound 40.5% uptake % ID/g			
CCN(CC)CCCN1CC[S][Re]2(=[O])[S]CC[N]2C(=O)C1 (centres unmarked) [Re-Compound C, [ReOAADT]-C3—NEt2]		100 fold	9.2	−0.5
